Assay results taken from ChEMBL document CHEMBL1138963, “Design, synthesis, and pharmacological evaluation of R/S-3,4-dihydro-2,2-dimethyl- 6-halo-4-(phenylaminocarbonylamino)-2H-1-benzopyrans: toward tissue-selective pancreatic beta-cell KATP channel openers structurally related to (+/-)-cromakalim” (J Med Chem, 2006).

Experiments:
Rattus norvegicus = species: Rattus norvegicus; assay: Myorelaxant activity against KCL-induced contraction of Wistar rat aortic rings; format: functional; conditions: Aorta
Pancreatic beta cell [1] = assay: Residual insulin release in Wistar rat pancreatic islet beta cells in presence of glucose at 10 uM; format: functional
Pancreatic beta cell [2] = assay: Selectivity ratio, IC50 for Wistar rat pancreatic islet beta cells/EC50 for aortic rings; format: functional
Pancreatic beta cell [3] = assay: Inhibition of insulin release in Wistar rat pancreatic islet beta cells; format: functional, cell-based
Pancreatic beta cell [4] = assay: Residual insulin release in Wistar rat pancreatic islet beta cells in presence of glucose at 1 uM; format: functional

SMILES | EC50 (Rattus norvegicus) | IC50 (Pancreatic beta cell [3]) | Activity (Pancreatic beta cell [1]) | Selectivity ratio (Pancreatic beta cell [2]) | Activity (Pancreatic beta cell [4])
COc1cccc(NC(=O)NC2CC(C)(C)Oc3ccc(Br)cc32)c1 (stereo not drawn) | > 10 µM | – | 73.5% | – | –
CC1(C)CC(NC(=O)Nc2ccccc2)c2cc(Br)ccc2O1 (stereo not drawn) | 2.3 µM | – | 75.9% | – | –
CC1(C)CC(NC(=O)Nc2cccc(Cl)c2)c2cc(F)ccc2O1 (stereo not drawn) | > 300 µM | 3.67 µM | 28% | <0.01 | 86%
CC1(C)CC(NC(=O)Nc2ccccc2)c2cc(F)ccc2O1 (stereo not drawn) | 17.1 µM | – | 83.8% | – | –
COc1cccc(NC(=O)NC2CC(C)(C)Oc3ccc(F)cc32)c1 (stereo not drawn) | > 10 µM | – | 66.6% | – | –
CC1(C)CC(NC(=O)Nc2ccccc2Cl)c2cc(Br)ccc2O1 (stereo not drawn) | > 30 µM | – | 41.8% | – | –
CC1(C)CC(NC(=O)Nc2ccc(Cl)cc2)c2cc(Br)ccc2O1 (stereo not drawn) | > 300 µM | 3.85 µM | 25.7% | <0.01 | 92.2%
Cc1cccc(NC(=O)NC2CC(C)(C)Oc3ccc(F)cc32)c1 (stereo not drawn) | > 30 µM | – | 75.2% | – | –
Cc1cccc(NC(=O)NC2CC(C)(C)Oc3ccc(Cl)cc32)c1 (stereo not drawn) | > 10 µM | – | 65.8% | – | –
COc1ccc(NC(=O)NC2CC(C)(C)Oc3ccc(Cl)cc32)cc1 (stereo not drawn) | > 30 µM | – | 79.3% | – | –
Cc1ccc(NC(=O)NC2CC(C)(C)Oc3ccc(Cl)cc32)cc1 (stereo not drawn) | > 30 µM | – | 69.5% | – | –
COc1ccccc1NC(=O)NC1CC(C)(C)Oc2ccc(Cl)cc21 (stereo not drawn) | > 10 µM | – | 94.6% | – | –
COc1ccc(NC(=O)NC2CC(C)(C)Oc3ccc(F)cc32)cc1 (stereo not drawn) | 15.5 µM | – | 89% | – | –
Cc1ccc(NC(=O)NC2CC(C)(C)Oc3ccc(F)cc32)cc1 (stereo not drawn) | > 30 µM | – | 70.6% | – | –
Cc1ccccc1NC(=O)NC1CC(C)(C)Oc2ccc(Br)cc21 (stereo not drawn) | > 30 µM | – | 79.5% | – | –
COc1ccccc1NC(=O)NC1CC(C)(C)Oc2ccc(Br)cc21 (stereo not drawn) | > 10 µM | – | 72.8% | – | –
Cc1ccccc1NC(=O)NC1CC(C)(C)Oc2ccc(F)cc21 (stereo not drawn) | > 30 µM | – | 79% | – | –
CC1(C)CC(NC(=O)Nc2ccccc2Cl)c2cc(F)ccc2O1 (stereo not drawn) | > 30 µM | – | 51.4% | – | –

The next lines start with results.

EC50 (Rattus norvegicus) | IC50 (Pancreatic beta cell [3]) | SMILES | Activity (Pancreatic beta cell [1]) | Selectivity ratio (Pancreatic beta cell [2]) | Activity (Pancreatic beta cell [4])
> 10 µM | – | Cc1cccc(NC(=O)NC2CC(C)(C)Oc3ccc(Br)cc32)c1 (stereo not drawn) | 63.4% | – | –
> 30 µM | 4.06 µM | CC1(C)CC(NC(=O)Nc2cccc(Cl)c2)c2cc(Br)ccc2O1 (stereo not drawn) | 28.6% | <0.14 | 91.5%
> 300 µM | – | CC1(C)CC(NC(=O)Nc2ccccc2Cl)c2cc(Cl)ccc2O1 (stereo not drawn) | 40.3% | – | –
> 30 µM | 3.6 µM | CC1(C)CC(NC(=O)Nc2ccc(Cl)cc2)c2cc(F)ccc2O1 (stereo not drawn) | 22.8% | <0.12 | 91.4%
> 10 µM | – | COc1cccc(NC(=O)NC2CC(C)(C)Oc3ccc(Cl)cc32)c1 (stereo not drawn) | 84% | – | –
> 10 µM | – | COc1ccc(NC(=O)NC2CC(C)(C)Oc3ccc(Br)cc32)cc1 (stereo not drawn) | 79.2% | – | –
7.8 µM | – | CC1(C)CC(NC(=O)Nc2ccccc2)c2cc(Cl)ccc2O1 (stereo not drawn) | 87.7% | – | –
> 10 µM | – | Cc1ccccc1NC(=O)NC1CC(C)(C)Oc2ccc(Cl)cc21 (stereo not drawn) | 85% | – | –
> 10 µM | – | COc1ccccc1NC(=O)NC1CC(C)(C)Oc2ccc(F)cc21 (stereo not drawn) | 84.4% | – | –
> 30 µM | – | Cc1ccc(NC(=O)NC2CC(C)(C)Oc3ccc(Br)cc32)cc1 (stereo not drawn) | 72.9% | – | –
0.13 µM | > 100 µM | CC1(C)Oc2ccc(C#N)cc2C(N2CCCC2=O)C1O (racemic) [CROMAKALIM] | 94.4% | >769.23 | 95.3%
